Reference: patent US8592419B2, “Ceramides and apoptosis-signaling ligand” (MUSC Foundation for Research Development, priority 2004, dated 2013)
One block for each compound: values may come before it. Where a SMILES comes first, the peptide text is derived from it. [ ]: non-standard residue; d: D form. The star is where a group is joined. Sta = CC(C)C[C@H](N)[C@@H](O)CC(=O)O; Isovaleryl = CC(C)CC(=O)*; Cbz = O=C(OCc1ccccc1)*; CH2F = FC*

Key:
[1] = system: lysosomes of DU145 cells; test: Lysosomal stability assay (LysoTracker Red); assay type: cell-based, human; settings: DU145 cells, 1 hour; LCL204 10 μM, C6-ceramide 30 μM, B13 20 μM
Procedure: Lysosoinal stability assay. Lysosomal stability was measured using the fluorescent dye LysoTracker Red (LTR). Cells were seeded overnight in 60 mm plates. The next day, medium was removed and replaced with medium containing 200 nM LTR. Cells were loaded with LTR for 30 minutes at 37° C. LTR was removed and cells were washed once with PBS, then medium containing the treatment was added for the indicated time. After treatment, cells were lifted with trypsin, washed once in PBS, and resuspended in 0.5 mL growth medium. LTR fluorescence was measured using FACS analysis (564-606 nm) as above. A decrease in fluorescence intensity corresponded to an increase in lysosomal pH, and a minimum of 10,000 events were scored for each sample.

[2] = biological target: T1, ASMase (Homo sapiens, UniProt P17405); test: Acid sphingomyelinase activity assay; assay type: cell-based; settings: DU145 cells, 2-hour LCL204 treatment
T1 construct: DU145 cells were lysed in 50 mM Tris (pH=7.4) using a probe sonicator; endogenous in cells; host or cells: DU145 (lysate of treated cells)
Procedure: Acid Sphingomyelinase Activity Assay. DU145 cells were lysed in 50 mM Tris (pH=7.4) using a probe sonicator. Cellular debris was removed after centrifugation at 3000×g for 10 minutes. Proteins (50 μg) were adjusted to a total volume of 100 μl and the reaction was started by adding 100 μl of the reaction mixture containing 1 mM EDTA, 250 mM sodium acetate (pH 5.0), 100 μM [choline-methyl-^14C] sphingomyelin and 0.1% Triton X. After incubation at 37° C. for one hour, the reaction was stopped by adding 1.5 ml of chloroform/methanol (2:1) and then 200 μl of water. Phases were separated by centrifugation at 2000×g for 5 minutes. Quantitation of the amount of released radioactive phosphocholine was determined by subjecting 400 μl of the upper phase to scintillation counting.

[3] = biological target: T2, acid ceramidase (AC) (Homo sapiens, UniProt Q13510); test: Immunoblot of acid ceramidase protein; assay type: cell-based; settings: DU145 cells, one hour pretreatment, then LCL204 10 μM 6 hours
T2 construct: endogenous in cells
T2 sequence (Q13510 22-395): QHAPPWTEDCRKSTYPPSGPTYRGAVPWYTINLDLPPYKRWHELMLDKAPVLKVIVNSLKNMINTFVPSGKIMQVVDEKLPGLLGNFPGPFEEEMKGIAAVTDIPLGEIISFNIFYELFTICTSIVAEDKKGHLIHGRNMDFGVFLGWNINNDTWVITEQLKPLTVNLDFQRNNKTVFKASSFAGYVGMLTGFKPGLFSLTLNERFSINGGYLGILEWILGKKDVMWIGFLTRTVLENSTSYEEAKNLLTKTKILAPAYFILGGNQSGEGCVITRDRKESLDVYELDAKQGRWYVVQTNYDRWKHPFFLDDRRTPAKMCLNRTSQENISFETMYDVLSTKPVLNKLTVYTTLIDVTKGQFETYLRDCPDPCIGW
Procedure: (§1) Immunoblot analysis. Cells were seeded in 60mm plates as described above and treated accordingly. Cells were lifted by gently scraping the plates, washed once with ice cold PBS and then lysed in lysis buffer (PBS, 1% Triton X-100, 10% glycerol) containing protease inhibitors pepstatin A (0.5 μg/ml), leupeptin (0.5 μg/ml), aprotinin (5 μg/ml), and PMSF (100 μg/ml) for 10 minutes on ice. Insoluble material was removed by centrifugation at 14,000 rpm for 15 minutes at 4° C. The supernatants were then supplemented with SDS at a final concentration of 2% and stored at −80° C. Protein concentrations were determined using the DC Protein Assay (BioRad Laboratories; Hercules, CA, USA) according to the manufacturer's instructions. 50 μg of protein per sample (unless otherwise indicated) were separated on NuPAGE 4-12% Bis-Tris gels (Invitrogen; Carlsbad, CA, USA) and transferred to nitrocellulose membranes (BioRad). Following transfer, membranes were blocked for 1 hour at room temperature in Tris-buffered saline (TBS) containing 0.1% Tween-20 and 5% nonfat dry milk and incubated overnight at 4° C. with primary antibody at a dilution of 1:2,000(actin), 1:1,000(cytochrome c, COX IV, Bax, Bak, p53, p38, P-p38), 1:500(P-JNK, JNK), 1:250 (AC, p73), or 1:400(LAMP-1, cathepsin B). Overnight incubations were performed in 5% milk in TBS-Tween. Following overnight incubation, membranes were washed three times for 10 minutes each in TBS-Tween and incubated for 1 hour at room temperature with secondary antibody in 5% milk TBS-Tween at a dilution 1:5,000 (goat anti-mouse IgG) or 1:50,000 (goat anti-rabbit). Membranes were then washed three times more and incubated for 5 minutes at room temperature with Super Signal HRP substrate (Pierce Biotechnology Inc.; Rockford, IL, USA).

[4] = system: L929 cells; test: TNFα-induced PGE2 release; assay type: cell-based; settings: TNFα-treated L929 mouse fibroblast cells, preliminary data
Excerpt: Interleukin-1 is a major inducer of inflammation and TNF is an important regulator of the reaction. Both cytokines can activate ceramidase, and thus inhibiting the activity of ceramidase can result in an anti-inflammatory effect. This may involve the prevention of the formation of sphingosine and sphingosine phosphate which have pro-inflammatory effects. Also, inhibition of ceramidase may prevent the hyperproliferation of immune cells that are important for inflammation. […] The release of PGE2 is also shown to be inhibited by D-(N-myristolyamino)-1-phenyl-1-propanol), D-MAPP, which is an inhibitor of one of the ceramidase. This observation may be important for inhibiting inflammatory reactions that occur in conditions, such as but not limited to rheumatoid arthritis. Thus, it is possible to treat or prevent inflammation by regulating the level of cellular ceramide using the method of the invention. As discussed above, ceramide level can be increased by administering compounds of the present invention that can inhibit mitochondrial ceramidase.

[5] = system: DU145 cells; test: Effect of doxorubicin on apoptotic resistance of DU145 cells; assay type: cell-based, human; settings: 0.2 μg/ml
Excerpt: The viruses described in Rubinchik et al. had been used under in vivo conditions to treat prostate cancer xenografts. […]. […] One of the limitations in PCa gene therapy is delivery of the therapeutic gene to every cell in the tumor. One way to overcome this is to amplify the response to the delivered gene by taking advantage of the bystander effect. For example, virally-expressed wild-type p53 is capable of inducing apoptosis in many types of cancer cells and is reported to have bystander activity by inducing localized FasL expression which recruits neutrophils infiltration that is believed to play a critical role in the bystander mechanism. In practice, the bystander effect, if activated , will result in regression of a solid tumor in spite of the physician's inability to deliver, by virus or liposome, a therapeutic gene to every cell. […] In the DU145 model of prostate cancer, the inventors determined that resistance to the induction of apoptosis through the Fas receptor signaling pathway is due to overexpression of apoptotic resistance genes including cFLIPs (Hyer et al., Cancer Biology and Therapy 1(4): 405-410, 2002). […] However, expression of apoptotic resistance genes in some cancers, including in the DU145 model, make the cells relatively insensitive to vesicle-mediated bystander activity. To overcome this, a number of different chemotherapeutic drugs and other small molecules were examined for their effect on apoptotic resistance mechanisms. […] This decrease in protein levels may be due to proteasomal degradation or a translational block. Under these conditions, a 20% increase in sensitivity of apoptotic vesicles is observed with 0.2 μg/ml doxorubicin. […]

[6] = system: DU145 cells; test: Cell death by MTS assay, ceramide analog combined with AdGFPFasL virus; assay type: cell-based, human
Procedure: LCL102, a ceramidase inhibitor, which acts to increasing intracellular ceramide levels by […], were tested in this system. This molecule was highly efficient at activating cell death in DU145 cells at nontoxic doses if combined with AdGFPFasL virus at MOIs achievable in vivo. DU145 cells growing in 96 well plates at 1×10^4 cells/well are treated with either media alone or LCL102 at 2 uM for 48 hours followed by AdGFPFasL for 24 hours at the MOI (5-80). Cell death is assayed by the MTS assay. At 2 uM LCL102 and 5MOI of virus, cell death is amplified 4-fold compared to LCL102 alone (FIG. 14).

[7] = system: DU145 cells; test: MTS cell viability assay in DU145 cells; assay type: cell-based, human; settings: for reproduction of the apoptotic consequences of LCL204-induced lysosomal rupture: agents that strictly alter lysosomal pH
Procedure: MTS cytotoxicity assays for LCL204 treatments. Cell viability was determined using the CellTiter 96 AQueous One Solution Cell Proliferation Assay (Promega; Madison, Wis., USA). 1×10^4 cells per well were seeded in 96-well plates overnight. The next day media was removed and replaced with either 100 μl media with vehicle control or media containing LCL204 at desired concentrations. Assays were carried out according to manufacturer's instruction as previously described (60). For experiments using enzyme inhibitors and LCL204, media was removed and replaced with 50 μl media containing vehicle only or indicated inhibitor. Cells were pretreated 1 hour at 37° C. before adding 50 μl media containing vehicle, inhibitor only, LCL204 only (2× concentration), or a combination. The remainder of the assay was carried out as described above.

[8] = system: PUMA; test: Immunoblot of PUMA; assay type: cell-based, human; settings: PPC-1/pcDNA3 cells, 40 μM SP600125 with LCL204
Procedure: as §1

T1 sequence (P17405 47-631): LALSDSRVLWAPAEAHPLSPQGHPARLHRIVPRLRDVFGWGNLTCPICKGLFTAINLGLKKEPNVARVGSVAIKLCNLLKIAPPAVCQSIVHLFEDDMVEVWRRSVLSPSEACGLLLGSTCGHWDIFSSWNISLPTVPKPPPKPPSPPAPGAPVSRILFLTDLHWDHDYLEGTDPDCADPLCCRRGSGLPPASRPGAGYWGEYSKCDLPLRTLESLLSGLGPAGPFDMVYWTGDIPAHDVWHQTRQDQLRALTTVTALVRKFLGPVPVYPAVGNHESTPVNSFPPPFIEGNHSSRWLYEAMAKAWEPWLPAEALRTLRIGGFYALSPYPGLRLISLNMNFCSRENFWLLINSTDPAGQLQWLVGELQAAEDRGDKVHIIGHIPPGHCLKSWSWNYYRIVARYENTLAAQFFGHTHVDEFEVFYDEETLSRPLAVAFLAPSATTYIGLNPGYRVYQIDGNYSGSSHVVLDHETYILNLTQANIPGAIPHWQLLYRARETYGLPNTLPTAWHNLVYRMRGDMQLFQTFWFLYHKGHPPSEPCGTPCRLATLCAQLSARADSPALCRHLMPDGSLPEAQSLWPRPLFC

Compound: CCCCCCCCCCCCCC(=O)N[C@H](CO)[C@H](O)c1ccc([N+](=O)[O-])cc1 [B13, reference compound]
shift in LTR fluorescence (rise in lysosomal pH) [1]: did not have this effect

Compound: CCCCCCCCCCCCC/C=C/[C@@H](O)[C@H](CO)NC(=O)CCCCC [C6-ceramide, reference compound]
shift in LTR fluorescence (rise in lysosomal pH) [1]: did not have this effect

effect on LCL204-induced loss of ASMase activity [2]: loss of activity was blocked
effect of protease inhibitor pretreatment on LCL204-induced AC protein loss [3]: blocked AC degradation
Compound: CCCNC(=O)[C@H]1O[C@@H]1C(=O)N[C@H](C(=O)N1CCC[C@H]1C(=O)OC)[C@@H](C)CC [CA074Me, reference compound]

Compound: CCCCCCCCCCCCCC(=O)NC(C)C(O)c1ccccc1 [D-MAPP]
release of PGE2 [4]: inhibited

Compound: COc1cccc2c1C(=O)c1c(O)c3c(c(O)c1C2=O)C[C@@](O)(C(=O)CO)C[C@@H]3O[C@H]1C[C@H](N)[C@H](O)[C@H](C)O1 [Doxorubicin]
cFLIP protein expression [5]: decreases expression of cFLIP protein
increase in sensitivity of apoptotic vesicles [5]: 20%
toxicity to DU145 cells [5]: toxic to DU145 cells at 48-72 hours

Compound: CCCCCCCCCCCCCCN[C@H](CO)[C@H](O)c1ccc([N+](=O)[O-])cc1 [LCL102, (1R,2R)-2-N-Tetradecylamino-1-(4-nitro-phenyl)-1,3-propandiol]
amplification of cell death compared to LCL102 alone ([6]; 2 uM for 48 hours, then AdGFPFasL 5MOI for 24 hours): 4 fold
increase of the ability of AdGFPFasL to kill tumor cells ([6]; in vitro, subtoxic doses): as much as ten-fold

Compound: CC(C)C[C@@H](C=O)NC(=O)[C@H](CC(C)C)NC(=O)[C@H](CC(C)C)NC(=O)OCc1ccccc1 [MG132] (Cbz-Leu-Leu-Leu-aldehyde)
effect of protease inhibitor pretreatment on LCL204-induced AC protein loss [3]: blocked AC degradation

Compound: Cl.N [NH4Cl]
reproduction of the apoptotic consequences of LCL204-induced lysosomal rupture [7]: could not be reproduced

Compound: Oc1c2ccccc2c2c3c(cccc13)N=N2 [SP600125, reference compound]
time until which LCL204-induced PUMA induction was delayed [8]: approximately 6 hours

Compound: CO/C1=C\C(C)=C\[C@@H](C)[C@@H](O)[C@@H](C)C/C(C)=C/C=C/[C@H](OC)[C@@H]([C@@H](C)[C@@H](O)[C@H](C)[C@@]2(O)C[C@@H](O)[C@H](C)[C@@H](C(C)C)O2)OC1=O [bafilomycin A1]
reproduction of the apoptotic consequences of LCL204-induced lysosomal rupture [7]: could not be reproduced

Compound: CC(C)CC(=O)N[C@H](C(=O)N[C@H](C(=O)N[C@@H](CC(C)C)[C@@H](O)CC(=O)N[C@@H](C)C(=O)N[C@@H](CC(C)C)[C@@H](O)CC(=O)O)C(C)C)C(C)C [pepstatin A] (Isovaleryl-VV[Sta]A[Sta]-OH)
effect of protease inhibitor pretreatment on LCL204-induced AC protein loss [3]: no effect

Compound: COC(=O)C[C@H](NC(=O)[C@H](C)NC(=O)[C@@H](NC(=O)OCc1ccccc1)C(C)C)C(=O)CF [zVAD-fmk] (Cbz-Val-Ala-Asp(OMe)-CH2F)
LCL204-mediated cell death after pre-treatment with caspase inhibitor ([7]; pre-treated one hour, then LCL204 24 hours, especially below 15 μM LCL204): cell death was substantially reduced
effect of protease inhibitor pretreatment on LCL204-induced AC protein loss [3]: blocked AC degradation
